Measurements reported in EP4741395A1, “NOVEL COMPOUND SENSITIVE TO NITROGEN MONOXIDE AND PHARMACEUTICAL COMPOSITION COMPRISING SAME” (Omniamed Co. Ltd, priority 2023, dated 2025).

How the values were obtained:
[1] = molecular target: T1, JAK 2 (Homo sapiens, UniProt O60674); experiment: JAK Human TK kinase enzymatic radiometric assay (Eurofins), JAK 2; type: biochemical; set-up: unit not given here; settings: value close to 100 indicates low JAK activity of the compound
T1 construct: purchased Eurofins Scientific (assay service)
Source text: (§1) For the compounds of the Examples, JAK activity of each of the compounds was verified using the JAK Human TK Kinase Enzymatic Radiometric Kinase Profiler Assay service provided by Eurofins Scientific.
(§2) The activity was verified after inducing a reaction at the JAK 1, 2 and 3 active sites using radioactively labeled ATP.

[2] = in vivo
Protocol: Specifically, the experimental animals were twelve six-week-old C57BL/6 male mice. The experimental animals were housed in polycarbonate cages in groups of four, and had free access to food and water. The animal housing room was maintained at a temperature of 20±1°C and humidity of about 50±5%, with a constant 12-hour light/dark cycle. The experimental animals were acclimated to the animal room environment for one week, and then randomly divided into three groups of four animals each based on body weight.

[3] = molecular target: T2, JAK 3 (Homo sapiens, UniProt P52333); experiment: JAK Human TK kinase enzymatic radiometric assay (Eurofins), JAK 3; type: biochemical; set-up: unit not given here; settings: value close to 100 indicates low JAK activity of the compound
T2 construct: purchased Eurofins Scientific (assay service)
T2 sequence (P52333 1-1124): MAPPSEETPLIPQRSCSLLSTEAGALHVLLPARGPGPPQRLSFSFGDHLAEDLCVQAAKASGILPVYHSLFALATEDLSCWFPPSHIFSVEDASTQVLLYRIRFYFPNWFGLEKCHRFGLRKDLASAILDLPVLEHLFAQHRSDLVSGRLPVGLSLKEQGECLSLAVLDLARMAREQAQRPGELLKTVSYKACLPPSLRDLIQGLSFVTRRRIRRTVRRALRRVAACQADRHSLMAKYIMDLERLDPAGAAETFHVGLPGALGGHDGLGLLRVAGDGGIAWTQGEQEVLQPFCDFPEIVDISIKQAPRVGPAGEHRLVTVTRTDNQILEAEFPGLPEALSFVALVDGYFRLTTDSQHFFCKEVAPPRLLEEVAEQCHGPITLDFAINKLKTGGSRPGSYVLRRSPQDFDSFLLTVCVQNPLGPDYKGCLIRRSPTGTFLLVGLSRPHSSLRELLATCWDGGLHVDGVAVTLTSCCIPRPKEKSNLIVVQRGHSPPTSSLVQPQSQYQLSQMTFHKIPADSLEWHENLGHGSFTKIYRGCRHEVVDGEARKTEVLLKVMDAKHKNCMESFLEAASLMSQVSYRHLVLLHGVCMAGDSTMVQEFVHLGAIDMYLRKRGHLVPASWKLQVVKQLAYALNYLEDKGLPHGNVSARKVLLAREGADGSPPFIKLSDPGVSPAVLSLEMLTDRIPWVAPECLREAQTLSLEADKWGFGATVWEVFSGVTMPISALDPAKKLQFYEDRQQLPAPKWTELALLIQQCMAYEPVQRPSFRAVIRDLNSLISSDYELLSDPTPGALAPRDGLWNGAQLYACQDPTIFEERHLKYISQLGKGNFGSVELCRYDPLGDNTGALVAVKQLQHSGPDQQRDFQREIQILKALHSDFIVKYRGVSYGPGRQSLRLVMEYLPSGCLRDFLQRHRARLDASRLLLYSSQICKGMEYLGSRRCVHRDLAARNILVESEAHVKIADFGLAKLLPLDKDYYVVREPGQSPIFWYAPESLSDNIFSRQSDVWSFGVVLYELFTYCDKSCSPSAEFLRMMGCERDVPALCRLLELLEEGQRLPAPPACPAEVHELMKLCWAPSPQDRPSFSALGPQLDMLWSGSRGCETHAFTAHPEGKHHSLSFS
Source text: as §1, §2

[4] = system: IFN-γ; experiment: IFN-γ reduction activity in Concanavalin A-treated splenocytes (quantitative ELISA); type: cell-based, C57BL/6 mouse; settings: Mus musculus, Splenocyte, Concanavalin A 5 µg/mL, 72 hours, read-out: IFN-γ Reduction Activity (%) (Mean±SD)
Summary of the method: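 Splenocytes from 8-week-old C57BL/6 mice at 5×10^6 cells/mL in RPMI 1640 with 10% FBS, stimulated with Concanavalin A (5 µg/mL) plus compound added concentration-dependently. Supernatant IFN-γ measured by quantitative ELISA after 72 h.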

[5] = system: splenocytes; experiment: Inhibitory activity on cell proliferation in splenocytes (CCK-8 analysis); type: cell-based, C57BL/6 mouse; settings: Mus musculus, Splenocyte, Concanavalin A 5 µg/mL, 72 hours, read-out: Inhibitory Activity on Cell Proliferation (%) (Mean±SD)

T1 sequence (O60674 whole entry): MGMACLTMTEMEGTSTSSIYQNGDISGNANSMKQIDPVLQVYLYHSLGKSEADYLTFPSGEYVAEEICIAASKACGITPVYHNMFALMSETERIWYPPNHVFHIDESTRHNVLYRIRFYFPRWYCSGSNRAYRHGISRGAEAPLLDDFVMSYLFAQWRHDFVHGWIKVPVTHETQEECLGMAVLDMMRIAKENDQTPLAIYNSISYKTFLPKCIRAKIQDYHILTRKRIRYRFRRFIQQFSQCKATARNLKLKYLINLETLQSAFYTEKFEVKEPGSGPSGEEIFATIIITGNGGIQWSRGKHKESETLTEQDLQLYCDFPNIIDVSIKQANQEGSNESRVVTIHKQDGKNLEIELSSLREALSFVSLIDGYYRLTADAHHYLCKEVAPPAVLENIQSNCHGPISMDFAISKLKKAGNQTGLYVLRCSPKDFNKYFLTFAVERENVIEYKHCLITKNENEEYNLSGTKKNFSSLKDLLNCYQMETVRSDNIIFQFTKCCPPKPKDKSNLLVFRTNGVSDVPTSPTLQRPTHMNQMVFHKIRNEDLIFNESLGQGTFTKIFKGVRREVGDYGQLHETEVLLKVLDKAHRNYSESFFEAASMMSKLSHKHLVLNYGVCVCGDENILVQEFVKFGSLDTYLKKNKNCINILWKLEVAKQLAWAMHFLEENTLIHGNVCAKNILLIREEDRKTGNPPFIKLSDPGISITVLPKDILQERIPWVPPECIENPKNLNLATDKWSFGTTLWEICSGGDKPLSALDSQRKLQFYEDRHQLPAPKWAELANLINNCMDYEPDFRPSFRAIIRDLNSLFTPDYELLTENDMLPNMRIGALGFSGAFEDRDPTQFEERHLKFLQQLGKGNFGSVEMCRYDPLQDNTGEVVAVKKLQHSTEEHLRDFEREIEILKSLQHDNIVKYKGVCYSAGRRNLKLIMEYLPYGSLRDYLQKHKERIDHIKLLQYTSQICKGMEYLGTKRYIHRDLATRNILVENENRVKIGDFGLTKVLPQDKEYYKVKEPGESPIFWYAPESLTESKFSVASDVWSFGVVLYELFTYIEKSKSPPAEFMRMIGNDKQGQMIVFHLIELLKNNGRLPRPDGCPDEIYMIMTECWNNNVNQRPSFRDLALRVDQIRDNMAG

## C[C@@H]1CCN(C(=O)CC#N)C[C@@H]1N(C)c1ncnc2c1ccn2C(=O)Nc1ccccc1N [Example 1, N-(2-aminophenyl)-4-(((3R,4R)-1-(2-cyanoacetyl)-4-methylpiperidin-3-yl) (methyl)amino)-7H-pyrrolo[2,3-d]pyrimidine-7-carboxamide]
[1]; 0.1 nM
  JAK 2 Activity: 100
[1]; 1 nM
  JAK 2 Activity: 92
[1]; 10 nM
  JAK 2 Activity: 69
[1]; 100 nM
  JAK 2 Activity: 16
[2]; male, mouse, in vivo, po
  MTD at 4 days: 1600 mg/kg
[2]; mice, oral once daily, 200, 400, 800, 1,600 mg/kg escalated daily
  mortality: no mortality was observed
[3]; 0.1 nM
  JAK 3 Activity: 94
[3]; 1 nM
  JAK 3 Activity: 95
[3]; 10 nM
  JAK 3 Activity: 55
[3]; 100 nM
  JAK 3 Activity: 16
[4]
  activity at 10 µM: 91.5 ± 1.37%
[5]
  inhibition at 10 µM: 55 ± 8.48%
